We go through three molecules from ChEMBL document CHEMBL1132340, “Novel prodrug approach for tertiary amines: synthesis and preliminary evaluation of N-phosphonooxymethyl prodrugs” (J Med Chem, 1999).

Holding throughout (format): physicochemical
The nature of data set [1]: pKa2 value of the compound. The note with it: read-out: pKa2.
Data set [2] can be described thus: pKa1 value of the compound. The note with it: read-out: pKa1.
Data set [3] can be described thus: pKa value of the compound.

As for `O=P(O)(O)OC[N+]1(C/C=C/c2ccccc2)CCN(C(c2ccccc2)c2ccccc2)CC1`, the pKa in data set [1] stood at 7.47; in data set [2], 1.95. The molecule `CCCCc1oc2ccccc2c1C(=O)c1cc(I)c(OCC[N+](CC)(CC)COP(=O)(O)O)c(I)c1` had a pKa in data set [3] of 6.56. Regarding `C[N+]1(COP(=O)(O)O)CCN(C2=Nc3ccccc3Oc3ccc(Cl)cc32)CC1`, in data set [1], the pKa was 7.5.
